Tested on: 439559-082-T-J2-PDC complex spheroid growth
Assay: Anticancer human tumor 439559-082-T-J2-PDC patient-derived colon adenocarcinoma cell line growth inhibition [Asc]
Conditions: for IC50: curve of first compound; for viability, T/C: stronger effect = lower value
Procedure, shortened: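 Concentration series start at each agent's clinical Cmax, or at 10 microM when none is established, and drop in half-log steps; agents are applied alone or together to complex spheroids built with HUVEC and hMSC.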
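Note: spheroids exposed to agents for 7 days starting day 3 after seeding.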
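Throughout, for viability, T/C: percent of DMSO vehicle control viability with 100% = vehicle.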

In the case of `C#Cc1c(F)ccc2cc(O)cc(-c3ncc4c(N5CC6CCC(C5)N6)nc(OCC56CCCN5CC(F)C6)nc4c3F)c12` (stereo not given) + Cc1c(S(C)(=O)=O)c(-c2cc(F)cc(N3CCN(c4ccc(NS(=O)(=O)c5ccc(NC(CCN6CCC(C(=O)OCCCP(=O)(O)O)CC6)CSc6ccccc6)c(S(=O)(=O)C(F)(F)F)c5)cc4)CC3)c2)c(-c2ccc(Cl)cc2)n1C(C)C, the IC50 (second compound 0.1 µM) is reported as 833 nM, the IC50 (second compound 0.316 µM) is reported as 620 nM and the IC50 (second compound 1 µM) is reported as 679 nM. It also gave an IC50 (second compound 3.16 µM) of 188 nM, an IC50 (second compound 10 µM) of 55.5 nM and a viability, T/C (second compound 0.1 µM, first compound 0.0316 µM) of 78.3%. The viability, T/C (second compound 0.1 µM, first compound 0.1 µM) was 77.3%, the viability, T/C (second compound 0.1 µM, first compound 0.316 µM) was 61.7% and the viability, T/C (second compound 0.1 µM, first compound 1 µM) was 47%. The viability, T/C (second compound 0.1 µM, first compound 3.16 µM) was 46.3%, the viability, T/C (second compound 0.1 µM, first compound 10 µM) was 37.1% and the viability, T/C (second compound 0.316 µM, first compound 0.0316 µM) was 79%. The viability, T/C (second compound 0.316 µM, first compound 0.1 µM) was 75.1%, the viability, T/C (second compound 0.316 µM, first compound 0.316 µM) was 57.5% and the viability, T/C (second compound 0.316 µM, first compound 1 µM) was 43%. It also gave a viability, T/C (second compound 0.316 µM, first compound 3.16 µM) of 40.9%, a viability, T/C (second compound 0.316 µM, first compound 10 µM) of 31.6% and a viability, T/C (second compound 1 µM, first compound 0.0316 µM) of 72.6%. The viability, T/C (second compound 1 µM, first compound 0.1 µM) was 66.4%, the viability, T/C (second compound 1 µM, first compound 0.316 µM) was 55.1% and the viability, T/C (second compound 1 µM, first compound 1 µM) was 44.1%. For the same compound, the viability, T/C (second compound 1 µM, first compound 3.16 µM) was 41.9%, the viability, T/C (second compound 1 µM, first compound 10 µM) was 27.4% and the viability, T/C (second compound 3.16 µM, first compound 0.0316 µM) was 67.2%. The viability, T/C (second compound 3.16 µM, first compound 0.1 µM) was 55%, the viability, T/C (second compound 3.16 µM, first compound 0.316 µM) was 45.6% and the viability, T/C (second compound 3.16 µM, first compound 1 µM) was 34.6%. It also gave a viability, T/C (second compound 3.16 µM, first compound 3.16 µM) of 32.7%, a viability, T/C (second compound 3.16 µM, first compound 10 µM) of 22.5% and a viability, T/C (second compound 10 µM, first compound 0.0316 µM) of 56.7%. The viability, T/C (second compound 10 µM, first compound 0.1 µM) was 41.2%, the viability, T/C (second compound 10 µM, first compound 0.316 µM) was 36.5% and the viability, T/C (second compound 10 µM, first compound 1 µM) was 24.4%. For the same compound, the viability, T/C (second compound 10 µM, first compound 3.16 µM) was 19.3% and the viability, T/C (second compound 10 µM, first compound 10 µM) was 14.9%.
For `Cc1nc(N2CCC3(CC2)COC(C)C3N)c(CO)nc1Sc1ccnc(N)c1Cl` (stereo not given) + Cc1c(S(C)(=O)=O)c(-c2cc(F)cc(N3CCN(c4ccc(NS(=O)(=O)c5ccc(NC(CCN6CCC(C(=O)OCCCP(=O)(O)O)CC6)CSc6ccccc6)c(S(=O)(=O)C(F)(F)F)c5)cc4)CC3)c2)c(-c2ccc(Cl)cc2)n1C(C)C, the IC50 (second compound 0.1 µM) was greater than 3000 nM, the IC50 (second compound 0.316 µM) was greater than 3000 nM and the IC50 (second compound 1 µM) was greater than 3000 nM. For the same compound, the IC50 (second compound 3.16 µM) was greater than 3000 nM, the IC50 (second compound 10 µM) was 2750 nM and the viability, T/C (second compound 0.1 µM, first compound 0.00949 µM) was 109%. It also gave a viability, T/C (second compound 0.1 µM, first compound 0.03 µM) of 115%, a viability, T/C (second compound 0.1 µM, first compound 0.0949 µM) of 100% and a viability, T/C (second compound 0.1 µM, first compound 0.3 µM) of 82.6%. For the same compound, the viability, T/C (second compound 0.1 µM, first compound 0.949 µM) was 86.5%, the viability, T/C (second compound 0.1 µM, first compound 3 µM) was 73.4% and the viability, T/C (second compound 0.316 µM, first compound 0.00949 µM) was 96.4%. The viability, T/C (second compound 0.316 µM, first compound 0.03 µM) was 107%, the viability, T/C (second compound 0.316 µM, first compound 0.0949 µM) was 103% and the viability, T/C (second compound 0.316 µM, first compound 0.3 µM) was 84.5%. It also gave a viability, T/C (second compound 0.316 µM, first compound 0.949 µM) of 77.9%, a viability, T/C (second compound 0.316 µM, first compound 3 µM) of 72.4% and a viability, T/C (second compound 1 µM, first compound 0.00949 µM) of 89.5%. For the same compound, the viability, T/C (second compound 1 µM, first compound 0.03 µM) was 97.5%, the viability, T/C (second compound 1 µM, first compound 0.0949 µM) was 98.2% and the viability, T/C (second compound 1 µM, first compound 0.3 µM) was 76.4%. For the same compound, the viability, T/C (second compound 1 µM, first compound 0.949 µM) was 63%, the viability, T/C (second compound 1 µM, first compound 3 µM) was 70.4% and the viability, T/C (second compound 3.16 µM, first compound 0.00949 µM) was 84%. It also gave a viability, T/C (second compound 3.16 µM, first compound 0.03 µM) of 95.7%, a viability, T/C (second compound 3.16 µM, first compound 0.0949 µM) of 92.1% and a viability, T/C (second compound 3.16 µM, first compound 0.3 µM) of 63.6%. For the same compound, the viability, T/C (second compound 3.16 µM, first compound 0.949 µM) was 65.5%, the viability, T/C (second compound 3.16 µM, first compound 3 µM) was 56.7% and the viability, T/C (second compound 10 µM, first compound 0.00949 µM) was 74.3%. It also gave a viability, T/C (second compound 10 µM, first compound 0.03 µM) of 75%, a viability, T/C (second compound 10 µM, first compound 0.0949 µM) of 72.7% and a viability, T/C (second compound 10 µM, first compound 0.3 µM) of 60.2%. For the same compound, the viability, T/C (second compound 10 µM, first compound 0.949 µM) was 60.3% and the viability, T/C (second compound 10 µM, first compound 3 µM) was 49.1%.

— PubChem BioAssay AID1963423 (Molecular Pharmacology Branch, DTP, NCI, 2024)
